In patent publication US20100112089A1, “PEPTIDE COMPOUND AND USE THEREOF” (Takeda Pharmaceutical Company Limited, priority 2008, published 2010):
Counter-ions that a name gives are not always drawn. Like-named read-outs stand apart in the source and are kept apart here. Square brackets hold non-standard residues; d marks the D form. Peptide text beside a SMILES is read from it. dPhe(F5) = N[C@H](Cc1c(F)c(F)c(F)c(F)c1F)C(=O)O; dBpa = N[C@H](Cc1ccc(C(=O)c2ccccc2)cc1)C(=O)O; dCha = N[C@H](CC1CCCCC1)C(=O)O

Experiments:
[1] = Pharmacokinetics of CBP501, single agent study; format: in vivo, human; conditions: for AUC(0-inf) / Cmax / clearance / half-life: human
Text: PK was examined in cycle (cy) 1. MTD is the level below that where 2 of 3-6 patients (pts) have DLT during cy 1-2.
In the single agent study, PK was examined in cycle 1. Samples were collected on Days 1 and 15 before the start of the infusion, then at various time points over 24 hr from the start of the infusion, as described below.

[2] = Pharmacokinetics of CBP501, combination study; format: in vivo, human; conditions: for Cl / AUC(0-inf) / Cmax / clearance / half-life: combination with cisplatin; for AUC(0-inf) / Cmax / clearance / half-life: human, in vivo
MSTO-211H cells = experiment: Water soluble tetrazolium (WST) analysis; format: cell-based; conditions: 72 hours
Protocol: (§1) The medium was replaced 24 hr after treatment, the cells were incubated for an additional 48 hr, and WST-8 solution (Kishida Chemical Co., Osaka, Japan) was added to each well. After 4 hr of incubation at 37° C., the absorbance at 450 nm was measured by microplate reader (Molecular Devices, Calif.).

NCI-H226 cells = experiment: Water soluble tetrazolium (WST) analysis; format: cell-based; conditions: 72 hours
Protocol: as §1

[3] = Tissue distribution of 3H-labelled CBP501, NCI-H226 xenograft model; format: in vivo, SCID mice; conditions: NCI-H226 and MSTO-211H xenograft tumors, Table 15
Protocol: A suspension of NCI-H226 cells was injected subcutaneously into the flanks of six weeks old male severe […] combined immune deficiency (SCID) mice (Charles River Lab., Wilmington, Mass.). The size of tumors was measured three times a week using a caliper. The volumes were calculated using the following formula: volume (cm^3)=[width^2 (mm)×length (mm)]/2000. The relative tumor volume was expressed as the Vt/V0 index, where Vt is the tumor volume on a measured day, and V0 is the volume of the same tumor just before the first treatment. Mean relative tumor sizes with standard error of mean, SEM, were plotted. Body weight was measured three times weekly from the first treatment, and the weight change was expressed as a percentage of the initial weight. Animals were housed in accordance with guidelines from the Association for the Assessment and Accreditation of Laboratory Animal Care International, and the protocols were approved by the institutional animal care committee of CanBas Co., Ltd.
An N-terminal amino acid, p-benzoylphenylalanyl, was ^3H labeled by Daiichi Kagaku Yakuhin Co., Ltd. (Tokyo, Japan).

[4] = at the recommended dose; non-patent literature 15; read-out: Cmax in the human studies; cited from earlier work
[5] = in vivo, 0.9 mg/m2, single agent, 0.9 mg/m^2, Day 1, mean, N 4
[6] = in vivo, 0.9 mg/m2, single agent, 0.9 mg/m^2, Day 15, mean, N 3
[7] = in vivo, 7.2 mg/m2, single agent, 7.2 mg/m^2, Day 1, mean, N 3
[8] = in vivo, 7.2 mg/m2, single agent, 7.2 mg/m^2, Day 15, mean, N 3
[9] = in vivo, 9.57 mg/m2, single agent, 9.57 mg/m^2, Day 1, mean, N 3
[10] = in vivo, 9.57 mg/m2, single agent, 9.57 mg/m^2, Day 15, mean, N 2
[11] = in vivo, 12.73 mg/m2, single agent, 12.73 mg/m^2, Day 1, mean, N 3
[12] = in vivo, 12.73 mg/m2, single agent, 12.73 mg/m^2, Day 15, mean, N 3
[13] = in vivo, 16.93 mg/m2, single agent, 16.93 mg/m^2, Day 1, mean, N 2
[14] = in vivo, 16.93 mg/m2, single agent, 16.93 mg/m^2, Day 15, mean, N 3
[15] = in vivo, 22.5 mg/m2, single agent, 22.5 mg/m^2, Day 1, mean, N 7
[16] = in vivo, 22.5 mg/m2, single agent, 22.5 mg/m^2, Day 15, mean, N 5
[17] = in vivo, […]2, single agent, […]^2, Day 1, mean, N 3
[18] = in vivo, […]2, single agent, […]^2, Day 1, mean, N 4
[19] = CBP501 7.2 mg/m^2, Day 1, mean, N 3
[20] = CBP501 10.8 mg/m^2, Day 1, mean, N 5
[21] = CBP501 16.2 mg/m^2, Day 1, mean, N 3
[22] = CBP501 24.3 mg/m^2, Day 1, mean, N 2
[23] = CBP501 36.45 mg/m^2, Day 1, mean, N 5

Structure (SMILES): N=C(N)NCCC[C@@H](NC(=O)[C@@H](CCCNC(=N)N)NC(=O)[C@@H](CCC(N)=O)NC(=O)[C@@H](CCCNC(=N)N)NC(=O)[C@@H](CCCNC(=N)N)NC(=O)[C@@H](CCCNC(=N)N)NC(=O)[C@@H](CC1CCCCC1)NC(=O)[C@@H](Cc1c(F)c(F)c(F)c(F)c1F)NC(=O)[C@@H](CO)NC(=O)[C@@H](Cc1c[nH]c2ccccc12)NC(=O)[C@@H](CO)NC(=O)[C@H](N)Cc1ccc(C(=O)c2ccccc2)cc1)C(=O)O [CBP501, H-(D)p-Benzoylphenylalanyl-(D)seryl-(D)tryptophyl-(D)seryl-(D)pentafluorophenylalanyl-(D)cyclohexylalanyl-(D)arginyl-(D)arginyl-(D)arginyl-(D)glutaminyl-(D)arginyl-(D)arginine acetate salt] (H-[dBpa][dS][dW][dS][dPhe(F5)][dCha][dR][dR][dR][dQ][dR][dR]-OH)
- inter-patient variability within dose levels, coefficient of variation ([1]; both studies, generally in the range): 20%-40%
- AUC(0-inf) [1, 5]: 178 ng·h/mL
- Cmax [1, 5]: 121 ng/mL
- clearance [1, 5]: 2.05 mL/min/kg
- half-life [1, 5]: 0.7 h
- AUC(0-inf) [1, 6]: 188 ng·h/mL
- Cmax [1, 6]: 138 ng/mL
- clearance [1, 6]: 1.8 mL/min/kg
- half-life [1, 6]: 0.6 h
- AUC(0-inf) [1, 7]: 4390 ng·h/mL
- Cmax [1, 7]: 1920 ng/mL
- clearance [1, 7]: 0.817 mL/min/kg
- half-life [1, 7]: 1.3 h
- AUC(0-inf) [1, 8]: 3660 ng·h/mL
- Cmax [1, 8]: 2010 ng/mL
- clearance [1, 8]: 0.933 mL/min/kg
- half-life [1, 8]: 1.1 h
- AUC(0-inf) [1, 9]: 6480 ng·h/mL
- Cmax [1, 9]: 2890 ng/mL
- clearance [1, 9]: 0.633 mL/min/kg
- half-life [1, 9]: 2.5 h
- AUC(0-inf) [1, 10]: 5140 ng·h/mL
- Cmax [1, 10]: 2410 ng/mL
- clearance [1, 10]: 0.783 mL/min/kg
- half-life [1, 10]: 1.2 h
- AUC(0-inf) [1, 11]: 6340 ng·h/mL
- Cmax [1, 11]: 2730 ng/mL
- clearance [1, 11]: 0.983 mL/min/kg
- half-life [1, 11]: 1.4 h
- AUC(0-inf) [1, 12]: 7660 ng·h/mL
- Cmax [1, 12]: 3080 ng/mL
- clearance [1, 12]: 0.8 mL/min/kg
- half-life [1, 12]: 2.4 h
- AUC(0-inf) [1, 13]: 14300 ng·h/mL
- Cmax [1, 13]: 4920 ng/mL
- clearance [1, 13]: 0.617 mL/min/kg
- half-life [1, 13]: 2 h
- AUC(0-inf) [1, 14]: 12600 ng·h/mL
- Cmax [1, 14]: 4640 ng/mL
- clearance [1, 14]: 0.6 mL/min/kg
- half-life [1, 14]: 2.9 h
- AUC(0-inf) [1, 15]: 16500 ng·h/mL
- Cmax [1, 15]: 6080 ng/mL
- clearance [1, 15]: 0.667 mL/min/kg
- half-life [1, 15]: 3.2 h
- AUC(0-inf) [1, 16]: 20200 ng·h/mL
- Cmax [1, 16]: 7490 ng/mL
- clearance [1, 16]: 0.583 mL/min/kg
- half-life [1, 16]: 4 h
- clearance [1, 17]: 0.917 mL/min/kg
- half-life [1, 17]: 1.2 h
- clearance [1, 18]: 0.867 mL/min/kg
- half-life [1, 18]: 1.7 h
- half-life ([1]; in vivo, […]2, single agent, […]^2, Day 15, mean, N 3): 1.6 h
- differences in PK between day 1 and day 15 or between single-agent and combination administration ([1]; in vivo): No consistent differences
- dose range over which dose-proportionality of Cmax and AUC0-inf was observed ([1]; in vivo): 40 fold
- Cl ([1]; single agent, 0.9 mg/m^2, Day 1, mean, N 4): 5240 mL/h/m^2
- Cl ([1]; single agent, 0.9 mg/m^2, Day 15, mean, N 3): 4908 mL/h/m^2
- Cl ([1]; single agent, 7.2 mg/m^2, Day 1, mean, N 3): 1802 mL/h/m^2
- Cl ([1]; single agent, 7.2 mg/m^2, Day 15, mean, N 3): 2041 mL/h/m^2
- Cl ([1]; single agent, 9.57 mg/m^2, Day 1, mean, N 3): 1599 mL/h/m^2
- Cl ([1]; single agent, 9.57 mg/m^2, Day 15, mean, N 2): 1954 mL/h/m^2
- Cl ([1]; single agent, 12.73 mg/m^2, Day 1, mean, N 3): 2081 mL/h/m^2
- Cl ([1]; single agent, 12.73 mg/m^2, Day 15, mean, N 3): 1677 mL/h/m^2
- Cl ([1]; single agent, 16.93 mg/m^2, Day 1, mean, N 2): 1395 mL/h/m^2
- Cl ([1]; single agent, 16.93 mg/m^2, Day 15, mean, N 3): 1372 mL/h/m^2
- Cl ([1]; single agent, 22.5 mg/m^2, Day 1, mean, N 7): 1458 mL/h/m^2
- Cl ([1]; single agent, 22.5 mg/m^2, Day 15, mean, N 5): 1206 mL/h/m^2
- Cl ([1]; single agent, […]^2, Day 1, mean, N 3): 2197 mL/h/m^2
- Cl ([1]; single agent, […]^2, Day 1, mean, N 4): 2908 mL/h/m^2
- dose-proportionality of Cmax and AUC ([1]; single agent, days 1 and 15, over the dose range evaluated, acetate salt): showed dose-proportionality
- Cl [2, 19]: 2752 mL/h/m^2
- Cl [2, 20]: 2198 mL/h/m^2
- Cl [2, 21]: 2124 mL/h/m^2
- Cl [2, 22]: 1217 mL/h/m^2
- Cl [2, 23]: 971 mL/h/m^2
- Cl ([2]; CBP501 […]^2, Day 1, mean, N 6): 2526 mL/h/m^2
- AUC(0-inf) [2, 19]: 2820 ng·h/mL
- Cmax [2, 19]: 1770 ng/mL
- clearance [2, 19]: 1.25 mL/min/kg
- half-life [2, 19]: 1.7 h
- AUC(0-inf) [2, 20]: 5350 ng·h/mL
- Cmax [2, 20]: 2550 ng/mL
- clearance [2, 20]: 0.883 mL/min/kg
- half-life [2, 20]: 1.7 h
- AUC(0-inf) [2, 21]: 7640 ng·h/mL
- Cmax [2, 21]: 3490 ng/mL
- clearance [2, 21]: 0.9 mL/min/kg
- half-life [2, 21]: 2.8 h
- AUC(0-inf) [2, 22]: 20200 ng·h/mL
- Cmax [2, 22]: 6830 ng/mL
- clearance [2, 22]: 0.567 mL/min/kg
- half-life [2, 22]: 4.1 h
- AUC(0-inf) [2, 23]: 39400 ng·h/mL
- Cmax [2, 23]: 9490 ng/mL
- clearance [2, 23]: 0.417 mL/min/kg
- half-life [2, 23]: 3.7 h
- clearance ([2]; CBP501 […]^2, Day 1, mean, N 6): 1.05 mL/min/kg
- half-life ([2]; CBP501 […]^2, Day 1, mean, N 6): 3.9 h
- dose-proportionality of Cmax and AUC ([2]; in combination with cisplatin, over the dose range evaluated, acetate salt): showed dose-proportionality
- cytotoxicity of cisplatin on addition of CBP501 (MSTO-211H cells): increased
- cytotoxicity of cisplatin on addition of CBP501 (NCI-H226 cells): increased
- concentration of CBP501 in the subcutaneous tumor xenograft [3]: 1 to 2 µM
- Cmax [4]: ~4 µM
